Laboratory results published in the supplement of paper PMC10307832.

Columns and labels:
Assay in all cases: relative viability (nuclei count vs DMSO), 5 days (fraction); higher = more cells survive
[1] = compound: C#Cc1cccc(Nc2ncnc3cc(OC)c(OCCCCCCC(=O)NO)cc23)c1 [CUDC-101] + COc1cccc2cc(-c3nc([C@H]4CC[C@H](C(=O)O)CC4)n4ncnc(N)c34)[nH]c12 [OSI-027] (partner 0.5 µM)
Method in brief: (§1)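 Dosing by pin tool came one day after lung cancer cell lines were seeded in 1536-well plates, using either one drug or a fixed anchor-drug dose plus five library-drug doses (not always all listed) in √10 steps. After 5 days, nuclei were counted on 4× images. Relative viability is treated-well nuclei count divided by vehicle-well nuclei count, and values are medians of duplicate plates.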

[2] = compound: C#Cc1cccc(Nc2ncnc3cc(OC)c(OCCCCCCC(=O)NO)cc23)c1 [CUDC-101] + Cc1nc(NC(=O)N2CCC[C@H]2C(N)=O)sc1-c1ccnc(C(C)(C)C(F)(F)F)c1 [Alpelisib] (partner 2 µM)
Method in brief: as §1

[3] = compound: COc1cc(N2CCC(N3CCN(C)CC3)CC2)ccc1Nc1ncc(Cl)c(Nc2ccccc2S(=O)(=O)C(C)C)n1 [NVP-TAE684] + CC(C)C[C@H](NC(=O)[C@H](Cc1ccccc1)NC(=O)c1cnccn1)B(O)O [Bortezomib] (partner 0.002 µM)
Method in brief: as §1

[4] = compound: COc1cc(N2CCC(N3CCN(C)CC3)CC2)ccc1Nc1ncc(Cl)c(Nc2ccccc2S(=O)(=O)C(C)C)n1 [NVP-TAE684] + C[C@]1(O)C[C@@H](c2nc(-c3ccc4ccc(-c5ccccc5)nc4c3)c3c(N)nccn32)C1 [Linsitinib] (partner 1 µM)
Method in brief: as §1

UMC-11
relative viability ([1]; first compound 0.01 µM): 0.505 | relative viability ([1]; first compound 0.03162 µM): 0.521 | relative viability ([1]; first compound 0.1 µM): 0.426 | relative viability ([1]; first compound 0.3162 µM): 0.172 | relative viability ([1]; first compound 1 µM): 0.105 | relative viability ([2]; first compound 0.01 µM): 1.24 | relative viability ([2]; first compound 0.03162 µM): 0.902 | relative viability ([2]; first compound 0.1 µM): 0.779 | relative viability ([2]; first compound 0.3162 µM): 0.395 | relative viability ([2]; first compound 1 µM): 0.123 | relative viability ([3]; first compound 0.2 µM): 0.642 | relative viability ([3]; first compound 0.6325 µM): 0.97 | relative viability ([3]; first compound 2 µM): 0.393 | relative viability ([4]; first compound 0.2 µM): 1.14 | relative viability ([4]; first compound 0.6325 µM): 0.904 | relative viability ([4]; first compound 2 µM): 0.282
